The record followed here is PubChem BioAssay (NCI).

SMILES strings stand for the structures. Values joined by “and” are separate entries in the source; they are usually repeats but may differ in a detail not shown here. Equal entries are not always repeated.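 Dose response: 5 concentrations. Exposure: 48 h. Format: 96-well plates. Endpoint: linear interpolation; highest concentration if not reached. GI50 marks 50% less growth. TGI: concentration producing complete growth inhibition.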

Experiment in all cases: NCI tumour cell line growth inhibition, 48 h
Assay [1] has as its system MDA-N.
Assay [2] deals with DLD-1 colon.
The subject of assay [3] is KM20L2 colon.
Assay [4] concerns LXFL 529 NSCLC.
In assay [5] the test system is SNB-78 CNS.
For assay [6], the system named is HOP-18 NSCLC.
For assay [7], the system named is DMS 273 small cell lung.
The test system of assay [8] is M19-MEL melanoma.
Assay [9] relates to RXF-631 renal.
The subject of assay [10] is SN12K1 renal.
Assay [11] concerns P388/ADR leukemia.

As for `CO/C(=N\N=C\c1cccc(C(F)(F)F)c1)c1ccncc1`, in [1], the GI50 is 3.25 µM; the TGI was 5.17 µM and 32.5 µM.
For the compound `CN(CCN(C)C(=O)CCOS(C)(=O)=O)C(=O)CCOS(C)(=O)=O`, the TGI in assay [2], in assay [3], in assay [4], in assay [5], in assay [6] and in assay [7] was over 100 µM throughout.
For `CCOC(=O)[C@H]1Nc2ccc(Cl)cc2[C@H]2c3ccccc3O[C@H]21`, the TGI in assay [2], in [3], in [8], in assay [4], in [5] and in assay [6] was over 100 µM in each case. For the same compound, the TGI in assay [9] and in assay [7] was over 100 µM throughout.
In turn, `N#C[C@H]1Nc2ccccc2[C@@H](O)C1O` (stereo not given in full) gave a TGI in assay [1] of over 100 µM.
As to `CN1CCC(n2[nH]c(-c3ccccc3)c(Cc3ccccc3)c2=O)CC1`, the TGI in [1] was over 100 µM.
As for `NC1=C(Cl)C(=O)c2ccccc2C1=O`, the TGI was 37.9 µM in [2]; 28 µM in [3]; 1.76 µM in assay [8]; 25.2 µM in assay [4]; 3.19 µM in assay [1]; over 63.3 µM in assay [5]. For the same compound, the TGI in [6] was 22 µM; in [7], 18.9 µM.
As for `Cc1ccc2nc(N/N=C/c3cccc(C)n3)cc(C)c2c1`, the TGI in assay [1] is 32.5 µM.
For `O=CN1CCN(C=S)CC1`, the TGI in assay [2], in assay [3], in assay [8], in assay [4], in assay [5] and in assay [9] was over 100 µM each time. This compound returned a TGI in [7] of over 100 µM.
Turning to `Clc1cc(Cl)cc(Nc2nc3ccccc3nc2-c2cccs2)c1`, the TGI in [2] is over 100 µM; in assay [8], 88.2 µM; in assay [4], over 100 µM; in assay [5], over 100 µM; in assay [6], 88.8 µM; in assay [9], 31.8 µM. Moreover, in assay [7], the TGI was found to be 27.2 µM.
`NC(=O)c1c2c(cc3c(=O)c4ccccc4[nH]c13)CCCC2`: the TGI in assay [2], in assay [3], in assay [8], in [4], in [6] and in [9] was over 100 µM each time. This compound had a TGI in assay [7] of over 100 µM.
Turning to `CC[C@@]1(O)C(=O)OCc2c1cc1n(c2=O)Cc2cc3c(NC(=O)CN)cccc3nc2-1`, in assay [1], the TGI turned out to be 46.7 µM.
As to `O=C(O)c1ccc(C2C3C=CC(C3)C2[N+](=O)[O-])cc1` (stereo not given), the TGI in assay [2], in assay [3], in assay [8], in assay [4], in [5] and in assay [9] was over 100 µM throughout. The compound further showed a TGI in assay [7] of over 100 µM.
In [1], `NC(=O)NCCSC1CCCCC1O` (stereo not given) had a TGI of over 100 µM.
Still for that read-out and setting: the value for `CC1(C)N[P+]2(Nc3ccccc3O2)OC1=O` (stereo not given) was 38.7 µM.
For `C=CCN(CC=C)CC(C(C)=O)C(c1ccccc1)c1c(O)c2ccccc2oc1=O` (stereo not given), the TGI in assay [2], in assay [3], in assay [8], in assay [4], in assay [5] and in assay [7] was over 100 µM throughout.
Consider `CCOC(=O)C(=O)Nc1ccc(Cl)c(C(F)(F)F)c1`, for which the TGI in assay [2], in [3], in assay [8], in [4], in assay [5] and in [6] was over 100 µM throughout. In addition, the TGI in assay [9] and in assay [7] was over 100 µM each time.
On to `CC1CC2(CCC1OCc1ccccc1)OCCO2` (stereo not given), for which the TGI in assay [2], in assay [8], in assay [4], in assay [5] and in assay [7] was over 100 µM throughout.
`CN(C)S(=O)(=O)c1ccc(Nc2ccc(O)c3c2C(=O)c2c([N+](=O)[O-])ccc(O)c2C3=O)cc1`: the TGI in [1] is over 100 µM.
As for `COC(=O)[C@]12CC=C3O[C@@H]4OC5(CCCCC5)O[C@@H]4[C@H]3C1C(=O)C=CC2=O` (stereo not given in full), the TGI in assay [2] came to 29.9 µM; in assay [10], 31.4 µM; in assay [3], 37.5 µM; in assay [8] it was 30.9 µM; in assay [4] it was 23.8 µM; in assay [1] it was 33.6 µM. Further, the TGI in assay [5] was determined as 37.2 µM; in assay [6] it was 32.6 µM; in assay [11], 10.5 µM; in assay [7] it was 34.3 µM.
Turning to `C[Si]12OCCCN(CCO1)CCO2`, the TGI in [2], in [8], in assay [4], in assay [5] and in assay [7] was over 100 µM in each case.
Consider `Cc1cc(NC(=O)NC(=O)c2ccccc2NC(=O)CN)ccc1Oc1ncc(Br)cn1`, for which the TGI in assay [2] is 4.62 µM; in assay [3], 18.6 µM; in assay [4], 75 µM; in assay [1], 1.1 µM and 0.178 µM; in assay [7] it was 38.1 µM. Besides, the GI50 in [1] was 0.0271 µM.
`COc1ccccc1NC(=O)C1=C(C)NC(C)=C(C(=O)Nc2ccccc2OC)C1c1cccc2c1OCO2`: the TGI in assay [2], in [3], in assay [8], in assay [4], in assay [6] and in [9] was over 100 µM each time. In assay [7], this compound displayed a TGI of over 100 µM.
For the compound `COc1ccc2c(c1)CCCC1C3=NCCC3(C)CSC21` (stereo not given), the TGI in assay [3] is 72.7 µM; in assay [8], over 100 µM; in [4], over 100 µM; in [5], over 100 µM; in [6], over 100 µM; in assay [7] it was over 100 µM.
As to `COc1ccccc1NC(=O)CC(=O)NNCC(=O)Nc1nnc(-c2ccccc2)o1`, the TGI in assay [2], in assay [3], in [8], in [4], in assay [5] and in assay [9] was over 100 µM throughout. In [7], this compound showed a TGI of over 100 µM.
For the compound `CC(=O)OC12CC(C)C3(O)C4C=C(C)C(=O)[C@@]4(O)CC(CO)=C[C@H]3C1C2(C)C` (stereo not given in full), in assay [1], the GI50 was 0.239 µM.
Turning to `COC(=O)n1c(CBr)c(Br)c2ccccc21`, the TGI in [2], in [3], in assay [8] and in assay [7] was over 100 µM in each case.
For `Cc1cc(N=C2C=C(Nc3cc(C)on3)C(=O)c3ccccc32)no1`, the TGI in assay [2] was over 100 µM; in assay [3] it was over 100 µM; in assay [8], 8.12 µM; in [4], over 100 µM; in assay [1], 4.02 µM; in assay [5], 68.1 µM. Further, the TGI was 92.2 µM in assay [6], over 100 µM in assay [9] and over 100 µM in [7].
Regarding `CC1=CC2CC(C)C1(C)CCc1ccoc12` (stereo not given), the TGI in [2], in [3], in [8], in assay [4], in assay [5] and in assay [6] was over 100 µM each time. The TGI in [9] and in assay [7] was over 100 µM each time.
`CC(=O)O[C@H]1CC[C@@]2(C)C(=CC[C@@H]3C2CC[C@]2(C)Nc4[nH]ncc4CC32)C1` (stereo not given in full): the TGI in assay [2] was 93.8 µM; in assay [3], 85.2 µM; in assay [8], 60.1 µM; in assay [4], 36.4 µM; in assay [5] it was over 100 µM; in assay [9], 34.7 µM. The compound further yielded a TGI in [7] of 31.8 µM.
For the compound `COc1ccc(C(O)/C(=C/n2ccnc2)c2ccccc2)cc1OC` (stereo not given), the TGI in [2], in assay [3], in assay [8], in assay [6], in assay [9] and in [7] was over 100 µM each time.
For the compound `CCCCCCCCCCCCCCCCn1cc[n+](Cc2ccccc2)c1C`, in [1], the GI50 was 0.328 µM and the TGI came out at 1.32 µM.
With `O=C(O)CCCNS(=O)(=O)c1ccc2ccccc2c1`, the TGI in assay [2], in [3], in assay [8], in assay [4], in assay [6] and in [9] was over 100 µM in each case. In addition, in [7], the TGI is over 100 µM.
The compound `O=C(NC1(C(=O)O)CC1c1ccccc1)c1ccccc1` (stereo not given) gave a TGI in assay [1] of over 100 µM.
For the compound `CCC[CH2][Sn]1([CH2]CCC)[O]C(=O)CN=Cc2ccccc2[O]1`, the GI50 in assay [2] was 0.568 µM; in [3], 1.02 µM; in [8], 0.249 µM; in assay [4], 0.102 µM; in assay [5], 0.232 µM; in [6], 0.337 µM. For the same compound, the GI50 in assay [9] was 0.182 µM; in assay [7], 0.864 µM. Besides, the TGI is over 100 µM in assay [2]; 2.26 µM in [3]; 1.15 µM in [8]; 0.236 µM in assay [4]; 1.34 µM in assay [5]; 1.36 µM in assay [6]. The TGI in [9] amounted to 0.324 µM; in [7] it was 2.12 µM.
For `Cc1c(O)c(=O)ccn1CCO`, the TGI in assay [2], in assay [3], in assay [8], in [4], in assay [5] and in assay [6] was over 100 µM in each case.
`COc1cc2c(c(OC)c1OC)-c1ccc(SC)c(=O)cc1C(CC(=O)Oc1cccc(C#N)c1)C2` (stereo not given): the TGI in assay [2] is over 100 µM; in assay [3] it was 0.443 µM; in [8], over 100 µM; in [4] it was over 100 µM; in assay [5], over 100 µM; in assay [6], over 100 µM. Besides, in assay [7], the TGI was over 100 µM.
`CCOC(=O)/C(=C\c1ccc(F)cc1)C(C)=O` gave a TGI in [1] of over 100 µM.
In turn, `COc1ccc(C(=O)CC(c2ccc(OC)c(OC)c2)c2c(O)c3ccccc3oc2=O)cc1OC` (stereo not given) displayed a TGI in assay [1] of over 100 µM.
As for `COC(=O)C1=Cc2c(cc(OC)c(OC)c2OC)[C@H](c2ccc(OC)c(OC)c2OC)C1C(=O)OC` (stereo not given in full), the TGI in [2], in assay [3], in [8], in assay [4], in [5] and in assay [9] was over 100 µM in each case. Further, the TGI in [7] is over 100 µM.
Turning to `Nc1nc(SCCC/C=C/I)nc2c1ncn2C1OC(CO)C(O)C1O` (stereo not given), the TGI in assay [2], in assay [3], in assay [8], in [5], in [6] and in assay [7] was over 202 µM in each case.
In the case of `CNC(=O)OCc1[nH]ccc2c(C)c3nc4ccc(OC)cc4c3cc12`, the TGI in assay [2] is over 100 µM; in assay [3] it was over 27.5 µM; in assay [8], over 100 µM; in assay [4], over 100 µM; in [5], over 100 µM; in assay [6], 34.1 µM. This compound also gave a TGI in assay [7] of over 100 µM.
